These results are taken from patent US10011629B2, “Nucleoside analogs for treatment of the flaviviridae family of viruses and cancer” (Cocrystal Pharma, Inc., priority 2015, dated 2018).

Data set [1] addresses HCV NS5B RNA polymerase GT 3a WT. The data set is described as follows: NS5B enzyme assay, GT 3a WT. It counts as biochemical. The following applies: NS5B enzyme GT 3a WT; average of two to three replicates ± SD. The method, then: The 21-amino-acid C-terminal truncated HCV NS5B RNA polymerase can be cloned from the HCV replicon cells, modified with a six-His-terminal tail, expressed in a prokaryotic expression vector (pQE60; Qiagen), and subsequently purified over a Talon cobalt affinity resin column (Clontech, Palo Alto, Calif.).^1 Purification can be monitored by SDS-PAGE and Western blotting. The resulting purified protein can be dialyzed overnight against 50 mM sodium phosphate (pH 8.0)-300 mM sodium chloride-0.5% Triton X-100-50% glycerol-2 mM dithiothreitol. The dialysate maintains consistent activity for more than 6 months when stored at −20° C. Protein can be quantified with the Coomassie Plus protein assay reagent (Pierce) by using a bovine serum albumin standard from the same supplier.
NS5B RNA polymerase reaction can be studied by monitoring the incorporation of ^32P-labeled UMP into the newly synthesized RNA strand by using minus IRES as the template. […] After the membrane is rinsed with water followed by rinsing with ethanol, the dots can be cut out and the radioactivity counted in a Packard liquid scintillation counter. The amount of product can be calculated on the basis of the total radioactivity in the reaction mixture. The rate of the reaction can be determined from the slope of the time course of product formation. […]

The target in data set [2] is T1, HCV NS5B RNA polymerase GT 3a L159F (Hepatitis C virus genotype 3a, UniProt Q81258, L2589F).
T1 construct: The 21-amino-acid C-terminal truncated HCV NS5B RNA polymerase; His6; made in house
T1 sequence (Q81258 2431-3000 L2589F): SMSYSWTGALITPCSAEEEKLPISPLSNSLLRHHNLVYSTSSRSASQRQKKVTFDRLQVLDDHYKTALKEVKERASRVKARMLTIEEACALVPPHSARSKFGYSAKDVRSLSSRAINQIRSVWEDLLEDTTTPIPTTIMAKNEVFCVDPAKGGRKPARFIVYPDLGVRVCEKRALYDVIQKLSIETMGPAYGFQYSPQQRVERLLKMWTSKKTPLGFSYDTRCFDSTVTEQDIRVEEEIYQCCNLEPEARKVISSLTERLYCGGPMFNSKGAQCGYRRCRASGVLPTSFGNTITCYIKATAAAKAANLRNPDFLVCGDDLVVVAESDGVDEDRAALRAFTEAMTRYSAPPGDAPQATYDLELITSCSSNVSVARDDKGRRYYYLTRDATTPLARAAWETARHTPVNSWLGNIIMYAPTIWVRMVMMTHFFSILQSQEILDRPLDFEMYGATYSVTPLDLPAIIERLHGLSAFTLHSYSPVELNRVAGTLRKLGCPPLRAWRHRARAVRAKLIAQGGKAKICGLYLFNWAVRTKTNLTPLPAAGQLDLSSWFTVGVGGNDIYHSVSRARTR
The data set is described as follows: NS5B enzyme assay, GT 3a L159F. The following applies: NS5B enzyme GT 3a L159F; average of two to three replicates ± SD. It counts as biochemical.
Experimental: The 21-amino-acid C-terminal truncated HCV NS5B RNA polymerase can be cloned from the HCV replicon cells, modified with a six-His-terminal tail, expressed in a prokaryotic expression vector (pQE60; Qiagen), and subsequently purified over a Talon cobalt affinity resin column (Clontech, Palo Alto, Calif.).^1 Purification can be monitored by SDS-PAGE and Western blotting. The resulting purified protein can be dialyzed overnight against 50 mM sodium phosphate (pH 8.0)-300 mM sodium chloride-0.5% Triton X-100-50% glycerol-2 mM dithiothreitol. […] Protein can be quantified with the Coomassie Plus protein assay reagent (Pierce) by using a bovine serum albumin standard from the same supplier.

The target in data set [3] is human mitochondrial RNA polymerase (POLRMT) (Homo sapiens, UniProt O00411). The data set is described as follows: In vitro human mitochondrial RNA polymerase (POLRMT) incorporation assay. The following applies: 100 μM rNTP, 2 hr, normalized to natural rNTP.
human mitochondrial RNA polymerase (POLRMT), sequence (O00411 42-1230): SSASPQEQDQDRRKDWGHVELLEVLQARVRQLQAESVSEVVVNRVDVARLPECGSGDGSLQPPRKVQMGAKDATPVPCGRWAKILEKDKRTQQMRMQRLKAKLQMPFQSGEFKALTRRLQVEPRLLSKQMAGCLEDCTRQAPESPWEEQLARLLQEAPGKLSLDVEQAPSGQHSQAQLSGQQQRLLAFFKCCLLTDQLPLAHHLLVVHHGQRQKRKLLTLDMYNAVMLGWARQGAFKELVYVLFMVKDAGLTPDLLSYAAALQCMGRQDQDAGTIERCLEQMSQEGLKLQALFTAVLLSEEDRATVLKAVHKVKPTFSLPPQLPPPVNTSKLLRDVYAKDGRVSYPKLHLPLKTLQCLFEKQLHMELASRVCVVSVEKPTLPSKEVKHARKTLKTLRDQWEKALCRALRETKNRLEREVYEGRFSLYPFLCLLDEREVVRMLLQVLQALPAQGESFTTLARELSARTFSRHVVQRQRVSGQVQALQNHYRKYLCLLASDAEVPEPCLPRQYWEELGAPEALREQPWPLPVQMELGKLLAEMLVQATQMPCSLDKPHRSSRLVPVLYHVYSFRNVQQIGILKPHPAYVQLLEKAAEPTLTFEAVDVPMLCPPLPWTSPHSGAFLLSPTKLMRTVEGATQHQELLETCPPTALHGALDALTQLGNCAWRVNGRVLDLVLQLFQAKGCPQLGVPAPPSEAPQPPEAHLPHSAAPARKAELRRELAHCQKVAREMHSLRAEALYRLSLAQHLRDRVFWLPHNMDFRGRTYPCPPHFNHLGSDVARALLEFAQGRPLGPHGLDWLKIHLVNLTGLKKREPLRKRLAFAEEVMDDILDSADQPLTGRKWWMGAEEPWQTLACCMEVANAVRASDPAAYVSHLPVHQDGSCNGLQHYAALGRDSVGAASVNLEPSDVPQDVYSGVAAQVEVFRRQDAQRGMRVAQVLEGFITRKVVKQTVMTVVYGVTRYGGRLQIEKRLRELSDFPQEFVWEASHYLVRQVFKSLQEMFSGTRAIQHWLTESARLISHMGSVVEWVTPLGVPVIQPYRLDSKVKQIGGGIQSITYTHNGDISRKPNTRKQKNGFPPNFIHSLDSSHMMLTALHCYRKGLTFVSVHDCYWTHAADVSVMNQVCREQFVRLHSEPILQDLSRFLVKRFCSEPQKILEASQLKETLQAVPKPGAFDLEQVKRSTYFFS
Experimental: 125 nM of POLRMT was incubated with 500 nM of 5′-radiolabled RNA/DNA hybrid, 10 mM MgCl2 and 100 μM of the corresponding nucleoside triphosphate. For non-nucleoside analogs, 100 μM of inhibitor was added at the same time as 100 μM UTP. Incorporation was allowed to proceed for 2 h at 30° C. and reactions were stopped by the addition of 10 mM EDTA and formamide. Samples were visualized on 20% denaturing polyacrylamide gel. Data were analyzed by normalizing the product fraction for each nucleoside triphosphate analog to that of the corresponding natural nucleoside triphosphate.
100 μM of each rNTP was incubated with POLRMT enzyme and the appropriate DNA/RNA primer/template hybrid and incorporation was evaluated at 2 hr. Nucleoside triphosphate analog incorporation was normalized to that of natural rNTP substrates.

Take `C[C@@]1(F)[C@H](O)[C@@H](COP(=O)(O)OP(=O)(O)OP(=O)(O)O)O[C@H]1n1ccc(=O)[nH]c1=O` [2′-Me-2′-F-UTP]: the results for the EC50 in data set [1] and in data set [2] were 7.2 ± 2.1 µM and 5.2 ± 1.4 µM, respectively. The “incorporation by POLRMT as compared to natural UTP” value in data set [3] is given as 3.1%.
